According to patent US11946070B2, “Method of reinforcing efficacy of stem cells using ethionamide” (SAMSUNG LIFE PUBLIC WELFARE FOUNDATION, priority 2019, dated 2024):

How the values were obtained:
[1] = test system: human umbilical cord mesenchymal stem cells; settings: ethionamide 50 or 100 μM; FIG. 4B
Experimental: (§1) First, a 3 to 4 cm piece of umbilical cord tissue was fragmented, and treated with a collagenase solution (Gibco, USA) for 60 to 90 minutes to digest an extracellular matrix, followed by digestion with 0.25% trypsin (Gibco, USA) for 30 minutes at 37° C. Subsequently, cells were obtained by adding fetal bovine serum (FBS; Biowest, USA) to the resulting product, and then performing centrifugation at 1000×g for 10 minutes, and then cultured using Minimum Essential Media (MEM; Gibco, USA) supplemented with 10% FBS and 50 μg/ml gentamycin (Gibco, USA) at 37° C. in a 5% CO2 atmosphere, and thus mesenchymal stem cells at passage 5 or 6 were used for an experiment.
(§2) 6×10^3 cells/cm 2 of the human umbilical cord mesenchymal stem cells prepared according to the method of Example 1 were seeded in a cell culture container, and simultaneously, ethionamide was treated at a concentration of 50 μM, 100 μM or 150 μM, followed by culturing for 72 hours.
Subsequently, the mesenchymal stem cells were treated with ethionamide by the same method as described above, and mRNA expression levels of antioxidation-related factors, such as HO-1, NQO1, GCLC and GCLM were measured.

[2] = test system: human umbilical cord mesenchymal stem cells; settings: ethionamide 50 or 100 μM; FIG. 4A
Experimental: as §1, §2
To verify whether the expression level of a paracrine factor of mesenchymal stem cells is changed by ethionamide treatment, the mesenchymal stem cells were treated with ethionamide at 50 or 100 μM, and then expression levels of a brain-derived neurotrophic factor (BDNF), a vascular endothelial cell growth factor (VEGF), insulin-like growth factor-1 (IGF-1) and a hepatocyte growth factor (HGF), which are known as paracrine factors, were measured.

In the case of `CCc1cc(C(N)=S)ccn1` [ethionamide, 2-ethylpyridine-4-carbothioamide], the “GCLC mRNA expression level” value [1] is reported as “significantly increases in proportion to the treated concentration of ethionamide”, the “GCLM mRNA expression level” value [1] is reported as “significantly increases in proportion to the treated concentration of ethionamide” and the “HO-1 mRNA expression level” value [1] is reported as “significantly increases in proportion to the treated concentration of ethionamide”. The “NQO1 mRNA expression level” value [1] was “significantly increases in proportion to the treated concentration of ethionamide”, the BDNF expression level [2] was “increases in proportion to the treated concentration of ethionamide” and the HGF expression level [2] was “increases in proportion to the treated concentration of ethionamide”. The IGF-1 expression level [2] was “increases in proportion to the treated concentration of ethionamide” and the VEGF expression level [2] was “increases in proportion to the treated concentration of ethionamide”.
